Experimental data published in patent US20080255041A1, “Treatment of annulus fibrosis defects” (EBI, L.P., priority 2007, published 2008).

System: annulus fibrosis of the defective disc
Experiment: Injection of the composition into the annulus fibrosis of a patient with degenerative disc disease
Type: in vivo, human
Conditions: patient with transverse annulus fibrosis tear between fifth lumbar and sacrum; F2A4-K—NS in hyaluronic acid carrier injected by syringe
From the text: A syringe containing the synthetic molecule F2A4-K—NS and a hyaluronic acid carrier is used to inject the composition into the annulus fibrosis of the defective disc. […] In the above example, collagen, heparin sulfate or propylene glycol is substituted for hyaluronic acid, to form gel carriers, with substantially similar results.

Question: With “H—YRSRKYSSWYVALKRK(H—YRSKYSSWYVALKR)-Ahx-Ahx-Ahx-RKRLDRIAR—NH2 [F2A4-K—NS]” as the substance, how does the “angiogenesis at the site of the annulus fibrosis defect” value read?
Answer: promotes angiogenesis

Question: What about the “degeneration of the disc / closure of the annulus fibrosis tear” value of the same substance?
Answer: prevents further degeneration of the disc
